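How tested: cells in 96-well plates exposed to compound for 48 hours at five concentrations. At the GI50, growth is halved. TGI denotes the concentration required for complete inhibition of growth.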
Assays:
Experiment in all cases: NCI anticancer screen, dose series, 48 h
[1] = test system: 786-0 renal
[2] = test system: A498 renal
[3] = test system: A549 NSCLC
[4] = test system: ACHN renal
[5] = test system: BT-549 breast
[6] = test system: CAKI-1 renal
[7] = test system: CCRF-CEM leukemia
[8] = test system: COLO 205 colon
[9] = test system: DU-145 prostate
[10] = test system: EKVX NSCLC
[11] = test system: HCC-2998 colon
[12] = test system: HCT-116 colon
[13] = test system: HCT-15 colon
[14] = test system: HL-60(TB) leukemia
[15] = test system: HOP-62 NSCLC
[16] = test system: HOP-92 NSCLC
[17] = test system: HS 578T breast
[18] = test system: HT29 colon
[19] = test system: IGROV1 ovarian
[20] = test system: K-562 leukemia
[21] = test system: KM12 colon
[22] = test system: LOX IMVI melanoma
[23] = test system: M14 melanoma
[24] = test system: MALME-3M melanoma
[25] = test system: MCF7 breast
[26] = test system: MDA-MB-231 breast
[27] = test system: MDA-MB-435
[28] = test system: MOLT-4 leukemia
[29] = test system: NCI-H226 lung
[30] = test system: NCI-H23 lung
[31] = test system: NCI-H460 lung
[32] = test system: NCI-H522 lung
[33] = test system: NCI/ADR-RES ovarian
[34] = test system: OVCAR-3 ovarian
[35] = test system: OVCAR-4 ovarian
[36] = test system: OVCAR-5 ovarian
[37] = test system: OVCAR-8 ovarian
[38] = test system: PC-3 prostate
[39] = test system: RPMI-8226 leukemia
[40] = test system: RXF 393 renal
[41] = test system: SF-268 CNS
[42] = test system: SF-295 CNS
[43] = test system: SF-539 CNS
[44] = test system: SK-MEL-2 melanoma
[45] = test system: SK-MEL-28 melanoma
[46] = test system: SK-MEL-5 melanoma
[47] = test system: SK-OV-3 ovarian
[48] = test system: SN12C renal
[49] = test system: SNB-19 CNS
[50] = test system: SNB-75 CNS
[51] = test system: SR leukemia
[52] = test system: SW-620 colon
[53] = test system: T-47D breast
[54] = test system: TK-10 renal
[55] = test system: U251 CNS
[56] = test system: UACC-257 melanoma
[57] = test system: UACC-62 melanoma
[58] = test system: UO-31 renal

## O=S(=O)(Nc1ccc(Cl)c(F)c1)c1ccc(-c2cnc(C3CC3)o2)cc1
[1]
  GI50: 535 nM
  TGI: 16200 nM
[2]
  GI50: 232 nM
  TGI: 922 nM
[3]
  GI50: 825 nM
  TGI: 14700 nM
[4]
  GI50: 622 nM
  TGI: 15800 nM
[5]
  GI50: 515 nM
  TGI: 15400 nM
[6]
  GI50: 360 nM
  TGI: 15200 nM
[7]
  GI50: 382 nM
  TGI: 21500 nM
[8]
  GI50: 651 nM
  TGI: 9700 nM
[9]
  GI50: 1650 nM
  TGI: 14700 nM
[10]
  GI50: 1050 nM
  TGI: 14800 nM
[11]
  GI50: 1720 nM
  TGI: 12300 nM
[12]
  GI50: 382 nM
  TGI: 12700 nM
[13]
  GI50: 332 nM
  TGI: 12600 nM
[14]
  GI50: 313 nM
  TGI: 3800 nM
[15]
  GI50: 579 nM
  TGI: 17600 nM
[16]
  GI50: 734 nM
  TGI: 6610 nM
[17]
  GI50: 355 nM
  TGI: 8560 nM
[18]
  GI50: 339 nM
  TGI: 5270 nM
[19]
  GI50: 556 nM
  TGI: 15200 nM
[20]
  GI50: 210 nM
  TGI: > 65300 nM
[21]
  GI50: 379 nM
  TGI: 13300 nM
[22]
  GI50: 503 nM
  TGI: 19100 nM
[23]
  GI50: 328 nM
  TGI: 12900 nM
[24]
  GI50: 821 nM
  TGI: 23400 nM
[25]
  GI50: 284 nM
  TGI: 13400 nM
[26]
  GI50: 1060 nM
  TGI: 11500 nM
[27]
  GI50: 85.3 nM
  TGI: 484 nM
[28]
  GI50: 614 nM
  TGI: 25000 nM
[29]
  GI50: 1250 nM
  TGI: 16500 nM
[30]
  GI50: 1190 nM
  TGI: 13500 nM
[31]
  GI50: 413 nM
  TGI: 11600 nM
[32]
  GI50: 192 nM
  TGI: 4420 nM
[33]
  GI50: 369 nM
  TGI: 7560 nM
[34]
  GI50: 357 nM
  TGI: 3480 nM
[35]
  GI50: 1820 nM
  TGI: 16200 nM
[36]
  GI50: 1610 nM
  TGI: 14500 nM
[37]
  GI50: 1090 nM
  TGI: 19800 nM
[38]
  GI50: 516 nM
  TGI: 13900 nM
[39]
  GI50: 531 nM
  TGI: > 53400 nM
[40]
  GI50: 282 nM
  TGI: 2750 nM
[41]
  GI50: 1030 nM
  TGI: 20100 nM
[42]
  GI50: 324 nM
  TGI: 2990 nM
[43]
  GI50: 354 nM
  TGI: 2780 nM
[44]
  GI50: 603 nM
  TGI: 18900 nM
[45]
  GI50: 1580 nM
  TGI: 17400 nM
[46]
  GI50: 511 nM
  TGI: 11100 nM
[47]
  GI50: 887 nM
  TGI: 18300 nM
[48]
  GI50: 808 nM
  TGI: 14400 nM
[49]
  GI50: 477 nM
  TGI: 14800 nM
[50]
  GI50: 172 nM
  TGI: 692 nM
[51]
  GI50: 253 nM
  TGI: > 43000 nM
[52]
  GI50: 374 nM
  TGI: 15000 nM
[53]
  GI50: 436 nM
  TGI: 15600 nM
[54]
  GI50: 1550 nM
  TGI: 12700 nM
[55]
  GI50: 448 nM
  TGI: 14400 nM
[56]
  GI50: 1350 nM
  TGI: 18200 nM
[57]
  GI50: 281 nM
  TGI: 8000 nM
[58]
  GI50: 855 nM
  TGI: 11900 nM

## COc1cccc(/C=C2\COc3ccc(O)c(O)c3C2=O)c1
[1]
  GI50: 1470 nM
  TGI: 3860 nM
[2]
  GI50: 1710 nM
  TGI: 4000 nM
[3]
  GI50: 2410 nM
  TGI: 10300 nM
[4]
  GI50: 1250 nM
  TGI: 2610 nM
[5]
  GI50: 1970 nM
  TGI: 5080 nM
[6]
  GI50: 1280 nM
  TGI: 2710 nM
[7]
  GI50: 263 nM
  TGI: 1110 nM
[8]
  GI50: 1960 nM
  TGI: 3870 nM
[9]
  GI50: 1680 nM
  TGI: 4160 nM
[10]
  GI50: 1820 nM
  TGI: 3950 nM
[11]
  GI50: 1600 nM
  TGI: 3030 nM
[12]
  GI50: 1250 nM
  TGI: 2900 nM
[13]
  GI50: 469 nM
  TGI: 4910 nM
[14]
  GI50: 405 nM
  TGI: 3200 nM
[15]
  GI50: 2800 nM
  TGI: 10400 nM
[16]
  GI50: 2110 nM
  TGI: 8010 nM
[17]
  GI50: 2900 nM
  TGI: 21800 nM
[18]
  GI50: 2260 nM
  TGI: 5070 nM
[19]
  GI50: 781 nM
  TGI: 3630 nM
[20]
  GI50: 396 nM
  TGI: > 100000 nM
[21]
  GI50: 1440 nM
  TGI: 3250 nM
[22]
  GI50: 740 nM
  TGI: 2060 nM
[23]
  GI50: 1880 nM
  TGI: 4760 nM
[24]
  GI50: 1450 nM
  TGI: 3710 nM
[25]
  GI50: 438 nM
  TGI: 3120 nM
[26]
  GI50: 1690 nM
  TGI: 6500 nM
[27]
  GI50: 1460 nM
  TGI: 4120 nM
[28]
  GI50: 1640 nM
  TGI: 17700 nM
[29]
  GI50: 2030 nM
  TGI: 5380 nM
[30]
  GI50: 1580 nM
  TGI: 3340 nM
[31]
  GI50: 2440 nM
  TGI: 8190 nM
[32]
  GI50: 193 nM
  TGI: 448 nM
[33]
  GI50: 1640 nM
  TGI: 5950 nM
[34]
  GI50: 629 nM
  TGI: 1930 nM
[35]
  GI50: 2180 nM
  TGI: 9470 nM
[36]
  GI50: 2180 nM
  TGI: 4690 nM
[37]
  GI50: 1790 nM
  TGI: 13200 nM
[38]
  GI50: 770 nM
  TGI: 6040 nM
[39]
  GI50: 223 nM
  TGI: 626 nM
[40]
  GI50: 1190 nM
  TGI: 2480 nM
[41]
  GI50: 1820 nM
  TGI: 5170 nM
[42]
  GI50: 3200 nM
  TGI: 10200 nM
[43]
  GI50: 1180 nM
  TGI: 3060 nM
[44]
  GI50: 2160 nM
  TGI: 5150 nM
[45]
  GI50: 1780 nM
  TGI: 4130 nM
[46]
  GI50: 1440 nM
  TGI: 2760 nM
[47]
  GI50: 3380 nM
  TGI: 12700 nM
[48]
  GI50: 1090 nM
  TGI: 3620 nM
[49]
  GI50: 1840 nM
  TGI: 5070 nM
[50]
  GI50: 1420 nM
  TGI: 10300 nM
[51]
  GI50: 359 nM
  TGI: 6970 nM
[52]
  GI50: 1160 nM
  TGI: 3850 nM
[53]
  GI50: 1580 nM
  TGI: 4380 nM
[54]
  GI50: 1740 nM
  TGI: 3490 nM
[55]
  GI50: 1150 nM
  TGI: 2490 nM
[56]
  GI50: 1730 nM
  TGI: 4770 nM
[57]
  GI50: 1530 nM
  TGI: 3220 nM
[58]
  GI50: 853 nM
  TGI: 2090 nM

Reference: PubChem BioAssay (NCI)
